Assay results as given in ChEMBL document CHEMBL5113554, “Dactylosporolides: Glycosylated Macrolides from Dactylosporangium fulvum” (J Nat Prod, 2022).

How the values were obtained:
Plasmodium falciparum [1] = test: Antiparasitic activity against Plasmodium falciparum 3D7 infected in erythrocytes assessed as parasite growth inhibition incubated for 48 hrs by SYBR Green I dye based fluorescence assay; type: functional, organism-based; details: 3D7, Erythrocyte
Plasmodium falciparum [2] = test: Antiparasitic activity against Plasmodium falciparum 3D7 infected in erythrocytes assessed as inhibition of parasite growth at 50 uM incubated for 48 hrs by SYBR Green I dye based fluorescence assay relative to control; type: functional; details: 3D7, Erythrocyte

| Compound | IC50 (Plasmodium falciparum [1]) [µM] | inhibition at 50 µM (Plasmodium falciparum [2]) [%] |
| --- | --- | --- |
| CO[C@@H]1C[C@H](O[C@H]2C[C@@H]3C[C@H](O)[C@@H](C)[C@](O)(C[C@@H](O)CCCC(=O)O[C@H](C[C@@H](O)[C@H](C)[C@@H](O)[C@@H](C)[C@H](CC(C)C)O[C@H]4CC[C@H](O[C@H]5C[C@@H](O)[C@H](O[C@H]6C[C@@H](O)[C@H](O)[C@@H](C)O6)[C@@H](C)O5)[C@@H](C)O4)[C@@H](C)/C=C/C=C/[C@@H](O)C2)O3)O[C@H](C)[C@H]1O | 32 | 74.8 |
| CO[C@H]1[C@H](O)C[C@H](O[C@H]2[C@H](O)C[C@H](O[C@H]3CC[C@H](O[C@@H](CC(C)C)[C@H](C)[C@H](O)[C@@H](C)[C@H](O)C[C@H]4OC(=O)CCC[C@H](O)C[C@]5(O)O[C@H](C[C@H](O[C@H]6C[C@@H](OC)[C@H](O)[C@@H](C)O6)C[C@H](O)/C=C/C=C/[C@@H]4C)C[C@H](O)[C@H]5C)O[C@@H]3C)O[C@@H]2C)O[C@@H]1C | 16 | 95.6 |
| CCN(CC)CCCC(C)Nc1ccnc2cc(Cl)ccc12 (configuration not stated) [CHLOROQUINE] | – | 100 |
| CO[C@@H]1C[C@H](O[C@H]2C[C@@H]3C[C@H](O)[C@@H](C)[C@](O)(C[C@@H](O)CCCC(=O)O[C@H](C[C@@H](O)[C@H](C)[C@@H](O)[C@@H](C)[C@@H](O)CC(C)C)[C@@H](C)/C=C/C=C/[C@@H](O)C2)O3)O[C@H](C)[C@H]1O | > 50 | 34 |
